The kinase profiling compilation of Christmann-Franck et al. (2016)

How the values were obtained:
Test in all cases: KINOMEscan competition binding
Settings in all cases: compound 10.0 µM
[1] = tested on: ABL1 (human), P00519 [Y253F]
ACVR1 (human) = ACVR1 (human) (UniProt Q04771)
ACVRL1 (human) = ACVRL1 (human) (UniProt P37023)
AKT1 (human) = AKT1 (human) (UniProt P31749)
AURKC (human) = AURKC (human) (UniProt Q9UQB9)
CAMK4 (human) = CAMK4 (human) (UniProt Q16566)
CAMKK1 (human) = CAMKK1 (human) (UniProt Q8N5S9)
CDK11B (human) = CDK11B (human) (UniProt P21127)
CDK4 CCND1 (human) = CDK4 CCND1 (human) (UniProt P11802+P24385)
CPK1 (P.falciparum) = tested on: CPK1 (P.falciparum)
CSNK1G3 (human) = CSNK1G3 (human) (UniProt Q9Y6M4)
DSTYK (human) = DSTYK (human) (UniProt Q6XUX3)
EPHA3 (human) = EPHA3 (human) (UniProt P29320)
EPHA4 (human) = EPHA4 (human) (UniProt P54764)
EPHA7 (human) = EPHA7 (human) (UniProt Q15375)
ERN1 (human) = ERN1 (human) (UniProt O75460)
FES (human) = FES (human) (UniProt P07332)
FLT1 (human) = FLT1 (human) (UniProt P17948)
IKBKE (human) = IKBKE (human) (UniProt Q14164)
IRAK1 (human) = IRAK1 (human) (UniProt P51617)
LCK (human) = LCK (human) (UniProt P06239)
MAP2K4 (human) = MAP2K4 (human) (UniProt P45985)
MAP3K12 (human) = MAP3K12 (human) (UniProt Q12852)
MAP3K13 (human) = MAP3K13 (human) (UniProt O43283)
MAP4K5 (human) = MAP4K5 (human) (UniProt Q9Y4K4)
MAPK8 (human) = MAPK8 (human) (UniProt P45983)
MATK (human) = MATK (human) (UniProt P42679)
MKNK2 (human) = MKNK2 (human) (UniProt Q9HBH9)
NEK1 (human) = NEK1 (human) (UniProt Q96PY6)
NEK11 (human) = NEK11 (human) (UniProt Q8NG66)
OXSR1 (human) = OXSR1 (human) (UniProt O95747)
PAK7 (human) = PAK7 (human) (UniProt Q9P286)
PDGFRB (human) = PDGFRB (human) (UniProt P09619)
PKN2 (human) = PKN2 (human) (UniProt Q16513)
RIPK1 (human) = RIPK1 (human) (UniProt Q13546)
RPS6KA6 KD2 (human) = RPS6KA6 KD2 (human) (UniProt Q9UK32)
SRMS (human) = SRMS (human) (UniProt Q9H3Y6)
SRPK2 (human) = SRPK2 (human) (UniProt P78362)
STK32C (human) = STK32C (human) (UniProt Q86UX6)
TNK2 (human) = TNK2 (human) (UniProt Q07912)

Chain of ACVR1 (human) (Q04771 whole entry, looked up): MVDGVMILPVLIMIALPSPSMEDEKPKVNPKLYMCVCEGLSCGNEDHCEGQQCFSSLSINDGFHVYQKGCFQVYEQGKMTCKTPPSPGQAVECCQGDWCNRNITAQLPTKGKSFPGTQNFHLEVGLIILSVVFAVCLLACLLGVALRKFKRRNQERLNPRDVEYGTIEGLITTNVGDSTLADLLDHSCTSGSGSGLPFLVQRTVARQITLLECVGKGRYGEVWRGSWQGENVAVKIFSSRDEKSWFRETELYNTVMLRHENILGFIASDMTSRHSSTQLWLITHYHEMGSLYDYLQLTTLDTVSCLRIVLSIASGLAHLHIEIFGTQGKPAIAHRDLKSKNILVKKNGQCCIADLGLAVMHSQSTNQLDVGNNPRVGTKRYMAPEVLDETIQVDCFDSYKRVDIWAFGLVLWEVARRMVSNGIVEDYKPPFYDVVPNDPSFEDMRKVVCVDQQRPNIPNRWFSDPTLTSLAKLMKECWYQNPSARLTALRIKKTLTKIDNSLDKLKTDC
Chain of NEK1 (human) (Q96PY6 whole entry, looked up): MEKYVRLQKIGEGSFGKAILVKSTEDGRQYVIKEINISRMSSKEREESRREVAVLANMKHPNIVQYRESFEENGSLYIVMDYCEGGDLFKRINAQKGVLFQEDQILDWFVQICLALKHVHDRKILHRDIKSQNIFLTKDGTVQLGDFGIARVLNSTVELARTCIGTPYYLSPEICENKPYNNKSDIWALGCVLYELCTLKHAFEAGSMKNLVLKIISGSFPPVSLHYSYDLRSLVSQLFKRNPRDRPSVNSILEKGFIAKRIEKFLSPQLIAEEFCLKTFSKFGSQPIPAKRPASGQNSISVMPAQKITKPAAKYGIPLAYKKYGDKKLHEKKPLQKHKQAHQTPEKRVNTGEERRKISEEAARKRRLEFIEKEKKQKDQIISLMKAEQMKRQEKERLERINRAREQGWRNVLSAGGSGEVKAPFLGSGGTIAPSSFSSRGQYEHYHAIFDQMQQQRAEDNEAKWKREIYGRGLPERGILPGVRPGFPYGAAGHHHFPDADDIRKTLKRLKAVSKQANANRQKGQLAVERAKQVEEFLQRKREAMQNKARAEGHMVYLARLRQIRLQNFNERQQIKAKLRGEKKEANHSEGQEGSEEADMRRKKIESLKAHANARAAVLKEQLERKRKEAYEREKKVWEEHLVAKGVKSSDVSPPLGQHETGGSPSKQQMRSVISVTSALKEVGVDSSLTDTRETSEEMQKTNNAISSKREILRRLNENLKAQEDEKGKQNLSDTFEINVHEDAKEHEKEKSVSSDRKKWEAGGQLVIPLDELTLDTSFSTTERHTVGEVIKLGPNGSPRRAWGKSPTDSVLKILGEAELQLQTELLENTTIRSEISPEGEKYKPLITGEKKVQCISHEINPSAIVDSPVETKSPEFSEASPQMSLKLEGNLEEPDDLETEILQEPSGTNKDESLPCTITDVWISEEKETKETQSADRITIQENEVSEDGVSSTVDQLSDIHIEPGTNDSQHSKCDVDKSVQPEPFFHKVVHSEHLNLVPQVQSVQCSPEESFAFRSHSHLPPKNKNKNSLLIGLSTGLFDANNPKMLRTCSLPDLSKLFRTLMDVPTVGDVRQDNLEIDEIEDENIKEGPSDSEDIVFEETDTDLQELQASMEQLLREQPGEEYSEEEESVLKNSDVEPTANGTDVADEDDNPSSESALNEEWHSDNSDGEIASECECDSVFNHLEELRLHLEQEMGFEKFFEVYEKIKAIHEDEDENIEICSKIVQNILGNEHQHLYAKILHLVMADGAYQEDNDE
Chain of CAMKK1 (human) (Q8N5S9 whole entry, looked up): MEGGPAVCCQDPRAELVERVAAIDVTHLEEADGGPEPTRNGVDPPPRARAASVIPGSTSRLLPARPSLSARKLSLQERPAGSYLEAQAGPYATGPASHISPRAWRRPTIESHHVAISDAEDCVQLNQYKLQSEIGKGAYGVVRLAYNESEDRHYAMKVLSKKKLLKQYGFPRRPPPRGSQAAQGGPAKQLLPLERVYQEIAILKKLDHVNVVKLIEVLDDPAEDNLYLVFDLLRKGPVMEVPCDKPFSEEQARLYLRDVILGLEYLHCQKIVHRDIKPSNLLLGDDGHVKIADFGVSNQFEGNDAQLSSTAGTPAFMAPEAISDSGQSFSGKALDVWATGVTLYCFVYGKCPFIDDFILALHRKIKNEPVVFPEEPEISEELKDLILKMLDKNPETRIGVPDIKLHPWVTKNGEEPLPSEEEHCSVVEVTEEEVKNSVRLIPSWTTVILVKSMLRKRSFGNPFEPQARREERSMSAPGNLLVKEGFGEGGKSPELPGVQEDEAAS
Chain of STK32C (human) (Q86UX6 whole entry, looked up): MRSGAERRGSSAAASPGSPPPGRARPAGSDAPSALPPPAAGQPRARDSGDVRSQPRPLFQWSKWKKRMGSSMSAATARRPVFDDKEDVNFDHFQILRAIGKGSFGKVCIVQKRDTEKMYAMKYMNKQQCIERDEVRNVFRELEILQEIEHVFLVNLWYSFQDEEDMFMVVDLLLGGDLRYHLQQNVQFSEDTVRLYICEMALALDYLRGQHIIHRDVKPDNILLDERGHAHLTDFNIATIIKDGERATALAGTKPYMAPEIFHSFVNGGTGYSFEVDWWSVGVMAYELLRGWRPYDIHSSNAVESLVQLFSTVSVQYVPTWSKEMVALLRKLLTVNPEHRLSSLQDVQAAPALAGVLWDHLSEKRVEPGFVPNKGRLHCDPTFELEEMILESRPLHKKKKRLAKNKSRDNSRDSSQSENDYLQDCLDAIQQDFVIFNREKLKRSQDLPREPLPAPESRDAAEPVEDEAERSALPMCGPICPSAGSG
Chain of EPHA3 (human) (P29320 whole entry, looked up): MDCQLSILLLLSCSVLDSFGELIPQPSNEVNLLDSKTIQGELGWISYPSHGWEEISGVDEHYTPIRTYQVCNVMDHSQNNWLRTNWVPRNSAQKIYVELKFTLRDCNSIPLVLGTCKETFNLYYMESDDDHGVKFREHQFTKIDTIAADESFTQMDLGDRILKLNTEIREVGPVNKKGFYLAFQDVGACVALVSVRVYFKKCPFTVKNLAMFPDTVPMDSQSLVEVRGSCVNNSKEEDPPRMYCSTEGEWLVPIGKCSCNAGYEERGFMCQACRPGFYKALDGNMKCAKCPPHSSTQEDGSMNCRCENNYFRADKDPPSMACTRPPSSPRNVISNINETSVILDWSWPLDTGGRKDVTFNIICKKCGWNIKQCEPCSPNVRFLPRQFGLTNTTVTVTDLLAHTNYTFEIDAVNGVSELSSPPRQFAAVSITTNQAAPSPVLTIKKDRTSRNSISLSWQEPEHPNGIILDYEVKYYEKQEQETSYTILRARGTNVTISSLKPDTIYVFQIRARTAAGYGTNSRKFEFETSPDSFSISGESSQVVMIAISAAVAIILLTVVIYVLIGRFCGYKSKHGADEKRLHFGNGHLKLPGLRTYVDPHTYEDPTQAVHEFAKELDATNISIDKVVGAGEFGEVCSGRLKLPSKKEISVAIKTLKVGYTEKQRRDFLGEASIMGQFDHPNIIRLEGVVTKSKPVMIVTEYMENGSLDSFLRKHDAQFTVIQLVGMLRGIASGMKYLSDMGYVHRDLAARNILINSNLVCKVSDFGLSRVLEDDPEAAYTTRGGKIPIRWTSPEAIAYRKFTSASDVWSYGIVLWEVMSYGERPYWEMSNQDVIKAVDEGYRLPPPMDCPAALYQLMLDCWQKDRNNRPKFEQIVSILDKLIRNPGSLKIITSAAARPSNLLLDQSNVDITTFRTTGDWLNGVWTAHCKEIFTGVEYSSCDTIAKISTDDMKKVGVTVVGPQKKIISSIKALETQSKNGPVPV
Chain of PKN2 (human) (Q16513 whole entry, looked up): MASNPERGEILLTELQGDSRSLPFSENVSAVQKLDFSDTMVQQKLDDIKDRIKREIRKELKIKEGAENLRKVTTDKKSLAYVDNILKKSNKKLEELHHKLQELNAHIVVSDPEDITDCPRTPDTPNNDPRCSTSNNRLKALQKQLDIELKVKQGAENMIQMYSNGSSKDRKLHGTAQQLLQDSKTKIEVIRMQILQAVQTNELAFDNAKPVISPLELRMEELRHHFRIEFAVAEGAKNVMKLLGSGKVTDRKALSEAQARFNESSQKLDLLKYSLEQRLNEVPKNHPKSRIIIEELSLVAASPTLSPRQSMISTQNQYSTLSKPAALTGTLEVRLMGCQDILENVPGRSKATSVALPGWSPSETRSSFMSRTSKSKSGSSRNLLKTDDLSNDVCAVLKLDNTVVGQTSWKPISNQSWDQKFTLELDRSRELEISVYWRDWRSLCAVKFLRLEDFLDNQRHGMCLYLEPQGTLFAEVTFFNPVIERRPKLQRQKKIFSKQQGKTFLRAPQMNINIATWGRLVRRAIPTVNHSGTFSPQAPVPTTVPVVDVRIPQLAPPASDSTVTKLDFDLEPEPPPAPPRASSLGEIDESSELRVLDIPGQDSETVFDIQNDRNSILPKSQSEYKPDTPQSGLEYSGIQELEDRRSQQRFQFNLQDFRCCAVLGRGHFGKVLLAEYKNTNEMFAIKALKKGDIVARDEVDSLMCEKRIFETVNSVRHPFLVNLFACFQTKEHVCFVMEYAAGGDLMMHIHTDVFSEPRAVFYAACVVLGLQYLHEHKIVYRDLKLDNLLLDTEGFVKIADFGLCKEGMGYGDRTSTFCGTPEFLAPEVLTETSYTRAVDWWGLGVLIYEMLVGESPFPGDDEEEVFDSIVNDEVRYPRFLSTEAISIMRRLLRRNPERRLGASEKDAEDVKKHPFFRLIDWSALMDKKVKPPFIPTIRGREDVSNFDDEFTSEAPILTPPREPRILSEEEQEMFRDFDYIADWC
Chain of AURKC (human) (Q9UQB9 whole entry, looked up): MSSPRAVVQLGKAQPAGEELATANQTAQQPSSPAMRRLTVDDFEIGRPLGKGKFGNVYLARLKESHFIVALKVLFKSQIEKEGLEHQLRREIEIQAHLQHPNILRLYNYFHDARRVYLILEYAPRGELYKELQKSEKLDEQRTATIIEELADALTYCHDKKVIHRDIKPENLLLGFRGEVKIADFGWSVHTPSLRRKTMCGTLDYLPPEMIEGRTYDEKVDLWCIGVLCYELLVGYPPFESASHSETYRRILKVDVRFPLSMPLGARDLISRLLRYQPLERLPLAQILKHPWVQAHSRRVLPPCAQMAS

Compound	kinase still bound, per cent of control [1] [%]	kinase still bound, per cent of control (ACVR1 (human)) [%]	kinase still bound, per cent of control (ACVRL1 (human)) [%]	kinase still bound, per cent of control (AKT1 (human)) [%]	kinase still bound, per cent of control (AURKC (human)) [%]	kinase still bound, per cent of control (CAMK4 (human)) [%]	kinase still bound, per cent of control (CAMKK1 (human)) [%]	kinase still bound, per cent of control (CDK11B (human)) [%]	kinase still bound, per cent of control (CDK4 CCND1 (human)) [%]	kinase still bound, per cent of control (CPK1 (P.falciparum)) [%]	kinase still bound, per cent of control (CSNK1G3 (human)) [%]	kinase still bound, per cent of control (DSTYK (human)) [%]	kinase still bound, per cent of control (EPHA3 (human)) [%]	kinase still bound, per cent of control (EPHA4 (human)) [%]	kinase still bound, per cent of control (EPHA7 (human)) [%]	kinase still bound, per cent of control (ERN1 (human)) [%]	kinase still bound, per cent of control (FES (human)) [%]	kinase still bound, per cent of control (FLT1 (human)) [%]	kinase still bound, per cent of control (IKBKE (human)) [%]	kinase still bound, per cent of control (IRAK1 (human)) [%]	also measured
N#CCNC(=O)c1ccc(-c2ccnc(Nc3ccc(N4CCOCC4)cc3)n2)cc1	61	0.95	47	100	18	100	27	66	13	100	100	38	69	100	96	100	100	55	5.2	1.3	kinase still bound, per cent of control (LCK (human)): 90%; kinase still bound, per cent of control (MAP2K4 (human)): 32%; kinase still bound, per cent of control (MAP3K12 (human)): 100%; kinase still bound, per cent of control (MAP3K13 (human)): 77%; kinase still bound, per cent of control (MAP4K5 (human)): 100%; kinase still bound, per cent of control (MAPK8 (human)): 1%; kinase still bound, per cent of control (MATK (human)): 85%; kinase still bound, per cent of control (MKNK2 (human)): 1.2%; kinase still bound, per cent of control (NEK1 (human)): 42%; kinase still bound, per cent of control (NEK11 (human)): 100%; kinase still bound, per cent of control (OXSR1 (human)): 58%; kinase still bound, per cent of control (PAK7 (human)): 56%; kinase still bound, per cent of control (PDGFRB (human)): 2.2%; kinase still bound, per cent of control (PKN2 (human)): 47%; kinase still bound, per cent of control (RIPK1 (human)): 63%; kinase still bound, per cent of control (RPS6KA6 KD2 (human)): 52%; kinase still bound, per cent of control (SRMS (human)): 100%; kinase still bound, per cent of control (SRPK2 (human)): 30%; kinase still bound, per cent of control (STK32C (human)): 100%; kinase still bound, per cent of control (TNK2 (human)): 93%
COc1cc2ncnc(-n3nc(-c4ccccn4)nc3N)c2cc1OC	0.3	0.2	15	100	6.2	100	17	93	47	1.4	20	19	11	34	18	46	99	48	9.6	2.8	kinase still bound, per cent of control (LCK (human)): 5.2%; kinase still bound, per cent of control (MAP2K4 (human)): 3.8%; kinase still bound, per cent of control (MAP3K12 (human)): 52%; kinase still bound, per cent of control (MAP3K13 (human)): 96%; kinase still bound, per cent of control (MAP4K5 (human)): 45%; kinase still bound, per cent of control (MAPK8 (human)): 12%; kinase still bound, per cent of control (MATK (human)): 57%; kinase still bound, per cent of control (MKNK2 (human)): 8.4%; kinase still bound, per cent of control (NEK1 (human)): 36%; kinase still bound, per cent of control (NEK11 (human)): 80%; kinase still bound, per cent of control (OXSR1 (human)): 42%; kinase still bound, per cent of control (PAK7 (human)): 63%; kinase still bound, per cent of control (PDGFRB (human)): 3.4%; kinase still bound, per cent of control (PKN2 (human)): 79%; kinase still bound, per cent of control (RIPK1 (human)): 86%; kinase still bound, per cent of control (RPS6KA6 KD2 (human)): 6.2%; kinase still bound, per cent of control (SRMS (human)): 27%; kinase still bound, per cent of control (SRPK2 (human)): 88%; kinase still bound, per cent of control (STK32C (human)): 44%; kinase still bound, per cent of control (TNK2 (human)): 54%
